In patent publication US8633134B2, “Substituted amidine compounds for combating animal pests” (priority 2008, dated 2014):

Columns and labels:
Format in all cases: in vivo
[1] = test system: Diamond Back Moth (Plutella xylostella); experiment: Diamond back moth leaf dip test; details: foliar, 120 h
Description: (§1) The active compound is dissolved at the desired concentration in a mixture of 1:1 (vol:vol) distilled water:acteon. The test solution is prepared at the day of use and in general at concentrations of […].
Leaves of Chinese cabbage were dipped in test solution and air-dried. Treated leaves were placed in petri dished lined with moist filter paper. Mortality was recorded 24, 72, and 120 hours after treatment.

[2] = test system: Mediterranean Fruitfly (Ceratitis capitata); experiment: Mediterranean fruitfly microtiter plate diet test; details: 120 h
Description: For evaluating control of Mediterranean fruitfly (Ceratitis capitata) the test unit consisted of microtiter plates containing an insect diet and 50-80 C. capitata eggs. The compounds were formulated using a solution containing 75% v/v water and 25% v/v DMSO. Different concentrations of formulated compounds were sprayed onto the insect diet at 5 μl, using a custom built micro atomizer, at two replications.
After application, microtiter plates were incubated at about 28±1° C. and about 80±5% relative humidity for 5 days. Egg and larval mortality was then visually assessed.

[3] = test system: Orchid Thrips (Dichromothrips corbetti); experiment: Orchid thrips floral-immersion test; details: 96 h
Description: Dichromothrips corbetti adults used for bioassay are obtained from a colony maintained continuously under laboratory conditions. For testing purposes, the test compound is diluted to a concentration of 300 ppm (wt compound: vol diluent) in a 1:1 mixture of acetone:water (vol:vol), plus 0.01% vol/vol Kinetic® surfactant.
Thrips potency of each compound is evaluated by using a floral-immersion technique. Plastic petri dishes are used as test arenas. All petals of individual, intact orchid flowers are dipped into treatment solution and allowed to dry. Treated flowers are placed into individual petri dishes along with 10-15 adult thrips. The petri dishes are then covered with lids. All test arenas are held under continuous light and a temperature of about 28° C. for duration of the assay. After 4 days, the numbers of live thrips are counted on each flower, and along inner walls of each petri dish. The level of thrips mortality is extrapolated from pre-treatment thrips numbers.

[4] = test system: Southern Armyworm (Spodoptera eridania); experiment: Southern armyworm lima bean foliar spray test; details: 96 h
Description: (§2) The active compounds were formulated in cyclohexanone as a 10,000 ppm solution supplied in tubes. The tubes were inserted into an automated electrostatic sprayer equipped with an atomizing nozzle and they served as stock solutions for which lower dilutions were made in 50% acetone:50% water (v/v). A nonionic surfactant (Kinetic®) was included in the solution at a volume of 0.01% (v/v).
(§3) Lima bean plants (variety Sieva) were grown 2 plants to a pot and selected for treatment at the 1st true leaf stage. Test solutions were sprayed onto the foliage by an automated electrostatic plant sprayer equipped with an atomizing spray nozzle. The plants were dried in the sprayer fume hood and then removed from the sprayer. Each pot was placed into perforated plastic bags with a zip closure. About 10 to 11 armyworm larvae were placed into the bag and the bags zipped closed. Test plants were maintained in a growth room at about 25° C. and about 20-40% relative humidity for 4 days, avoiding direct exposure to fluorescent light (24 hour photoperiod) to prevent trapping of heat inside the bags. Mortality and reduced feeding were assessed 4 days after treatment, compared to untreated control plants.

[5] = test system: Tobacco Budworm (Heliothis virescens); experiment: Tobacco budworm cotton plant foliar spray test; details: 96 h
Description: as §2
as §3, with “Cotton” for “Lima bean”, “plants” for “plants (variety Sieva)”, “cotyledon” for “1st true leaf”, “budworm” for “armyworm”

[6] = test system: Boll Weevil (Anthonomus grandis); experiment: Boll weevil microtiter plate diet test; details: 120 h
Description: For evaluating control of boll weevil (Anthonomus grandis) the test unit consisted of 24-well-microtiter plates containing an insect diet and 20-30 A. grandis eggs.
The compounds were formulated using a solution containing 75% v/v water and 25% v/v DMSO. Different concentrations of formulated compounds were sprayed onto the insect diet at 20 μl, using a custom built micro atomizer, at two replications. After application, microtiter plates were incubated at about 23±1° C. and about 50±5% relative humidity for 5 days. Egg and larval mortality was then visually assessed.

[7] = test system: Cowpea Aphid (Aphis craccivora); experiment: Cowpea aphid spray test on potted cowpea plants; details: population reduction assessed after 24, 72, and 120 hours, in comparison with untreated controls
Description: as §1
Potted cowpea plants colonized with approximately 100-150 aphids of various stages were sprayed after the pest population has been recorded. Population reduction was assessed after 24, 72, and 120 hours.

[8] = test system: Vetch Aphid (Megoura viciae); experiment: Vetch aphid leaf disk microtiter plate test; details: foliar, 120 h
Description: For evaluating control of vetch aphid (Megoura viciae) through contact or systemic means the test unit consisted of 24-well-microtiter plates containing broad bean leaf disks.
The compounds were formulated using a solution containing 75% v/v water and 25% v/v DMSO. Different concentrations of formulated compounds were sprayed onto the leaf disks at 2.5 μl, using a custom built micro atomizer, at two replications. After application, the leaf disks were air-dried and 5-8 adult aphids placed on the leaf disks inside the microtiter plate wells. The aphids were then allowed to suck on the treated leaf disks and incubated at about 23±1° C. and about 50±5% relative humidity for 5 days. Aphid mortality and fecundity was then visually assessed.

[9] = test system: Cotton Aphid (Aphis gossypii); experiment: Cotton aphid foliar spray test; details: 120 h, after 5 days, in comparison with untreated controls
From the text: as §2
Cotton plants at the cotyledon stage were infested with aphids prior to treatment by placing a heavily infested leaf from the main aphid colony on top of each cotyledon. Aphids were allowed to transfer overnight to accomplish an infestation of 80-100 aphids per plant and the host leaf was removed. The infested plants were then sprayed by an automated electrostatic plant sprayer equipped with an atomizing spray nozzle. The plants were dried in the sprayer fume hood, removed from the sprayer, and then maintained in a growth room under fluorescent lighting in a 24-hr photoperiod at 25° C. and 20-40% relative humidity. Aphid mortality on the treated plants, relative to mortality on untreated control plants, was determined after 5 days.

[10] = test system: Silverleaf Whitefly (Bemisia argentifolii); experiment: Silverleaf whitefly cotton plant spray test; details: 72 h, 3 days after treatment, in comparison with untreated controls
From the text: as §2
Cotton plants at the cotyledon stage (one plant per pot) were sprayed by an automated electrostatic plant sprayer equipped with an atomizing spray nozzle. The plants were dried in the sprayer fume hood and then removed from the sprayer. Each pot was placed into a plastic cup and about 10 to 12 whitefly adults (approximately 3-5 days old) were introduced. The insects were collected using an aspirator and a nontoxic Tygon® tubing connected to a barrier pipette tip. The tip, containing the collected insects, was then gently inserted into the soil containing the treated plant, allowing insects to crawl out of the tip to reach the foliage for feeding. Cups were covered with a reusable screened lid. Test plants were maintained in a growth room at about 25° C. and about 20-40% relative humidity for 3 days, avoiding direct exposure to fluorescent light (24 hour photoperiod) to prevent trapping of heat inside the cup. Mortality was assessed 3 days after treatment, compared to untreated control plants.

[11] = test system: yellowfever mosquito larvae (Aedes aegypti); experiment: Larval mosquito water treatment assay; details: 120 h, 5 DAT (days after treatment), first tier test, in comparison with untreated controls
Description: The assay was conducted in 6-well polystyrene plates using one plate per treatment rate. Stock solutions were prepared at 100 and 1000 ppm. Screen rates were at 1 and 10 ppm. Distilled water was added to each well, control wells were treated with acetone. Temephos (Abate technical) was used as the standard at 0.1 ppm. Ten late thirdinstar yellowfever mosquito larvae (Aedes aegypti) in water were added to each well. One drop of liver powder solution (6 g in 100 ml distilled water) was added to each well as a food source daily. Plates were maintained at 22-25° C. and 25-50% RH (relative humidity) and observed daily for dead larvae and pupae at 1, 2, 3, and 5 days after treatment. Dead larvae and all pupae were removed daily. Mortality was defined as an insect incapable of coordinated movement when agitated.

[12] = test system: Western Flower Thrips (Frankliniella occidentalis); experiment: Western flower thrips glass vial / leaf disc test; details: 300 ppm; 2 DAT; in comparison with untreated controls
Description: Serial dilutions of each technical grade AI were made in pure acetone. 0.5 ml of the treatment solution was deposited into the bottom of a glass vial (scintillation vial). The cap was screwed back onto the vial and inverted for about five seconds. The cap was subsequently removed and the vial laid on its side and rolled constantly, on a hot dog roller, until all the acetone had flashed off and the inner surface of the vial was dry. Cotton leave discs were also dipped simultaneously into the treatment solutions and allowed to dry. After the vials were dried, the leave discs are placed into the vials to serve as a food/water source for the thrips. Each treatment was replicated 5-fold.
Western flower thrips were aspirated into the vials, approximately 5 larvae or adults/vial. Following treatment application the vials were held in a holding room under fluorescent light and constant 26° C. Thrips mortality was assessed at 2 DAT (days after treatment), counting all thrips both dead and alive.

Compound	mortality at 300 ppm [1] [%]	mortality at 2500 ppm [2] [%]	mortality at 300 ppm [3] [%]	mortality at 300 ppm [4] [%]	mortality at 2500 ppm [5] [%]	mortality at 2500 ppm [6] [%]	mortality at 300 ppm [7] [%]	mortality at 2500 ppm [8] [%]	mortality at 300 ppm [9] [%]	mortality at 300 ppm [10] [%]	mortality at 1 ppm [11] [%]	mortality [12]
Cc1cc(C2=NOC(c3cc(Cl)cc(Cl)c3)(C(F)(F)F)C2)ccc1C(=NCC(F)(F)F)NC(=O)CO (stereo not shown) [Compound 1-7, 4-[5-(3,5-Dichloro-phenyl)-5-trifluoromethyl-4,5-dihydro-isoxazol-3-yl]-N-hydroxyacetyl-2-methyl-N′-(2,2,2-trifluoro-ethyl)-benzamidine]	≥ 75	≥ 75	≥ 75	≥ 75	≥ 75	≥ 75	–	–	–	–	–	–
Cc1nc(-c2ccc(C3=NOC(c4cc(Cl)cc(Cl)c4)(C(F)(F)F)C3)cc2C)no1 (stereo not shown) [Compound 9-2, 3-{4-[5-(3,5-Dichloro-phenyl)-5-trifluoromethyl-4,5-dihydro-isoxazol-3-yl]-2-methyl-phenyl}-5-methyl-[1,2,4]oxadiazole]	≥ 75	≥ 75	–	≥ 75	≥ 75	≥ 75	–	–	–	–	–	–
CC(=O)N(Cc1ccccn1)C(C(=O)C=NO)c1ccc(C2=NOC(c3cc(Cl)cc(Cl)c3)(C(F)(F)F)C2)cc1C (stereo not shown) [Compound 1-10, N-{{4-[5-(3,5-dichloro-phenyl)-5-trifluoromethyl-4,5-dihydro-isoxazol-3-yl]-2-methyl-phenyl}-hydroxyiminoacetyl-methyl}-N-pyridin-2-ylmethyl-acetamide]	≥ 75	≥ 75	≥ 75	≥ 75	≥ 75	≥ 75	≥ 75	≥ 75	–	–	–	–
CN=C(NO)c1ccc(C2=NOC(c3cc(Cl)cc(Cl)c3)(C(F)(F)F)C2)cc1C (stereo not shown) [Compound 1-1, 4-[5-(3,5-Dichloro-phenyl)-5-trifluoromethyl-4,5-dihydro-isoxazol-3-yl]-N-hydroxy-2,N′-dimethyl-benzamidine]	≥ 75	≥ 75	≥ 75	≥ 75	≥ 75	≥ 75	–	≥ 75	≥ 75	≥ 75	≥ 75	–
Cc1cc(C2=NOC(c3cc(Cl)cc(Cl)c3)(C(F)(F)F)C2)ccc1C(=NO)N(C)C (stereo not shown) [Compound 1-2]	–	–	–	–	–	–	–	–	–	–	–	at least 75%
Cc1cc(C2=NOC(c3cc(Cl)cc(Cl)c3)(C(F)(F)F)C2)ccc1C(=NCc1ccccn1)NO (stereo not shown) [Compound 1-8, 4-[5-(3,5-Dichloro-phenyl)-5-trifluoromethyl-4,5-dihydro-isoxazol-3-yl]-N-hydroxy-2-methyl-N′-pyridin-2-ylmethyl-benzamidine]	≥ 75	≥ 75	≥ 75	≥ 75	≥ 75	≥ 75	≥ 75	≥ 75	≥ 75	–	–	–
Cc1nc(-c2ccc(C3=NOC(c4cc(Cl)cc(Cl)c4)(C(F)(F)F)C3)cc2CC(F)(F)F)no1 (stereo not shown) [Compound 9-4, 3-{4-[5-(3,5-Dichloro-phenyl)-5-trifluoromethyl-4,5-dihydro-isoxazol-3-yl]-2-trifluoroethyl-phenyl}-5-methyl-[1,2,4]oxadiazole]	–	≥ 75	–	≥ 75	≥ 75	≥ 75	–	–	–	–	–	–
